# How the values were obtained:
# [1] = system: A549 cells; assay: cells; conditions: Homo sapiens, A549, 96 h
# Description: (§1) Further, a proliferation test was prepared for the same three cell lines: WI-38, A549 and HS 683. 3x10^4 WI-38 cells and 2x10^4 A549 and HS 683. Cells were seeded into each wells in 96-well culture plates in appropriate culture medium with 10% FBS (fetal bovine serum). […] After 96 hours incubation in 37°C/5%CO2 MTT assay was performed for establishing the cell viability.
# [2] = system: HS-683; assay: cells; conditions: Homo sapiens, Hs 683, 96 h
# Description: as §1
# [3] = system: WI-38 cells; assay: cells; conditions: Homo sapiens, WI-38, 96 h
# Description: as §1
# [4] = system: IFN-γ production
# Description: (§2) After 24 hours of incubation in 37°C/5%CO2 samples of leukocytes and supernatants were collected.
# (§3) Cytokine levels were determined using ELISA kits (BD Biosciences, USA) for human IFNγ, TNF-α and IL-6 and DuoSet for human IL-3 (R&D Systems, USA) according to the producers' instructions. The optical density was measured at 450 nm using a Multiskan RC spectrophotometric reader (Thermo Labsystems, USA), Cytokine concentrations were expressed in pg/ml.
# [5] = system: IL-6 production
# Description: as §2, §3
# [6] = system: TNF-α production
# Description: as §2, §3
# [7] = system: H1N1 virus; conditions: 0,002 mg/kg each 24 hours; 24 hours after treatment; 15000 treated vs 15000 control chicken, control turned down the production of eggs
# [8] = rat, in vivo
# [9] = in vivo
# [10] = system: A549 (human lung adenocarcinoma epithelial cell line); conditions: A549, 48 hours, MTT
# [11] = system: HS683 (human neuronal glioma cell line); conditions: HS-683, 48 hours, MTT
# [12] = system: human PBLs (leukocytes of peripheral blood); conditions: 48 hours, MTT
# Description: Thereby, cell viability was determined on the basis of the mitochondria-dependent reduction of MTT (3-[4,5-dimethyltiazol 2yl]-2,5-diphenyltetrazolium bromide) to formazan. […] Next cells were treated with 20 µl of MTT. After 3 hours of incubation at 37°C, the formazan blue formed in the cells was dissolved in 100 µl of SDS (sodium dodecylsulfate) for 3 hours in 37°C. The optical density was measured at 570 nm.
# After the cytotoxicity tests LC50 (LC50-lethal concentration, 50%-dose required to kill half of the cells after a specified test duration) were estimated for each cell lines and PBLs (leukocytes of peripheral blood). Additionally for PBLs LC10 and LC5 were calculated.
# On the basis of the results of MTT assay for human leukocytes the LC50, LC10 and LC5 were evaluated.
# [13] = system: cell proliferation; assay: cells; conditions: Homo sapiens, read-out: doses that inhibit 50% of cell proliferation
# [14] = intranasal spray, single 3 mg dose, women, before emergence from general anesthesia; cited from earlier work
# [15] = read-out: concentration that inhibits 50% of the proliferation
compound,measurement,setting,value
CN1CCC[C@H]1c1cccnc1,IC50,[1]; [15],2000 µg/mL
same,IC99,[1]; read-out: concentration that inhibits 99% of the proliferation,5500 µg/mL
same,IC99,[2]; read-out: concentration at which 99% of proliferation are inhibited,5500 µg/mL
same,IC50,[2]; [15],2900 µg/mL
same,IC50,[3]; [15],1000 µg/mL
same,IC99,[3]; read-out: concentration that inhibits a proliferation of 99%,4500 µg/mL
same,effect on IFN-γ production,[4],strongly decreases the level of interferon in a dose-dependent manner
same,effect on IL-6 production,[5],no effect
same,effect on TNF-α production,[6],increases the level of cytokines in a dose-dependent manner
same,production of eggs,[7],began to lay off eggs
same,mortality,[8],"0,625 of 8 rats"
same,healing effect,[9],increased healing effect
same,LC50,[10],"4,5 mg/ml"
same,LC50,[11],"3,5 mg/ml"
same,LC5,[12],"0,5 mg/ml"
same,LC10,[12],1000 µg/mL
same,IC50,[13],> 1000 µg/mL
same,pain scores during the first day post-surgery,[14],significant reduction in pain scores
same,risks of hypertension of tachycardia,[14],not increasing the risks

# — patent publication EP4069192B1 (Solis Herrera, Arturo, priority 2019, dated 2021)
